Experiments:
[1] = LC/MS quantification of peptide 5A in blood plasma of nanoparticle injected rats; format: in vivo, Wistar rats; settings: same rat plasma samples
Procedure: The acrylamide based nanoparticles containing peptide 5A were injected in the lateral tail vein of 3 Wistar rats at a concentration of 17.25 mg of nanoparticle per kg of bodyweight, corresponding to 0.5 mg peptide 5A per kg of bodyweight. Blood samples were collected in lithium heparin plasma microtainer tubes (BD, Franklin Lakes, NJ). A small incision was made in the contralateral tail vein and the blood was collected directly into the tube. Immediately after collecting the blood, the tubes were manually inverted 8 times to ensure mixing with the anti-coagulant. Blood samples were stored on ice for up to 30 minutes before separating the plasma by centrifugation at 2000 g for 10 minutes. No hemolysis was observed. […]
Peptide 5A standards were prepared by spiking rat plasma with peptide 5A+B and subsequently reducing the disulfide bond between peptide 5A and 5B, yielding free peptide 5A as depicted in Fig 1. […] (Neither the peaks corresponding to the mass of peptide 5B nor the unreduced peptide 5A+B were analyzed, see LC-MS analysis section). […]
Plasma samples for LC/MS were prepared by adding 300 μL of 10 mM TCEP in loading mobile phase mix to 30 μL of sample. […] The filtrate was transferred to autosampler vials and analyzed or frozen at -80°C until analysis.
Samples with expected concentrations higher than the upper limit of quantification were diluted with rat plasma prior to sample preparation. […]

[2] = ELISA quantification of peptide 5A in blood plasma after intravenous injection of peptide 5A nanoparticles; format: in vivo, Wistar rats
Procedure: The acrylamide based nanoparticles containing peptide 5A were injected in the lateral tail vein of 3 Wistar rats at a concentration of 17.25 mg of nanoparticle per kg of bodyweight, corresponding to 0.5 mg peptide 5A per kg of bodyweight. Blood samples were collected in lithium heparin plasma microtainer tubes (BD, Franklin Lakes, NJ). A small incision was made in the contralateral tail vein and the blood was collected directly into the tube. Immediately after collecting the blood, the tubes were manually inverted 8 times to ensure mixing with the anti-coagulant. Blood samples were stored on ice for up to 30 minutes before separating the plasma by centrifugation at 2000 g for 10 minutes. No hemolysis was observed.
Samples were collected from each animal immediately after injection (time point 0) and at 15, 30, 60, 120, 240, 480 minutes after injection. All plasma samples were stored at -80°C until further analysis.
The plasma samples were diluted 1/500 in PBS, based on the range of the standard curve and the expected initial plasma concentrations. Streptavidin coated ELISA 96-well microplates (Steffens Biotechnische Analysen, Germany) were rinsed with 100 μl PBS per well and incubated with plasma samples in duplicate, for one hour at room temperature. After washing the wells three times with PBS, the carboxyfluorescein group present on the reporter peptide was detected by incubating with monoclonal (mAb) mouse-anti-fluorescein peroxidase-conjugated IgG (Dianova, Hamburg, Germany) diluted 1:100,000 in PBS with 0.1% BSA for one hour. Subsequently, the wells were washed three times with PBS and incubated with soluble high sensitivity TMB (SDT, Baesweiler, Germany) for 10 minutes in the dark. The enzymatic peroxidase reaction was stopped with 1 M HCl and absorbance at 450 nm was measured on a VICTOR X3 Multilabel Plate Reader (Perkin Elmer, Waltham, MA). All incubations were performed at room temperature on a plate shaker at 650 rpm. The wells were washed with PBS three times both after sample and antibody incubation. The TMB reaction was performed in the dark for 10 minutes. […] The absorbance at 450 nm of the negative controls was considered as background and subtracted from the absorbance of the plasma samples.
Free peptide 5A was used as a positive control in the ELISA described above with a lower limit of detection of 1 ng/mL (data not shown). Nanoparticles containing a known concentration of peptide 5A, were used to generate a standard curve for the quantification of blood plasma samples. The standard curve data were fitted to a Hill curve using Graphpad Prism (Graphpad Software, La Jolla, CA) and the Hill equation was used to calculate the concentration of peptide 5A in blood plasma samples from the absorbance at 450 nm (See S1 Table).

[3] = i.v. nanoparticles 17.25 mg/kg = 0.5 mg peptide 5A per kg, Wistar rats, n = 3

In the case of “napvsipqKGGC [peptide 5A, reporter peptide napvsipqKGGC functionalized with biotin and carboxyfluorescein, attached to nanoparticles]”, the “factor by which plasma concentrations measured by LC/MS were higher than by ELISA” value [1] was roughly 4, the “peptide 5A plasma concentration (ELISA), highest concentration” value ([2]; 15 minutes after injection, i.v. lateral tail vein, nanoparticles 17.25 mg/kg = 0.5 mg peptide 5A per kg, male Wistar rats, plasma diluted 1/500 in PBS, mean ± S.E.M., 3 animals) was 2706 ± 466 ng/mL and the “time after injection up to which the peptide was detected in plasma (ELISA)” value [2, 3] was “up to 2 hours”. For the same substance, the “time of highest plasma concentration (ELISA)” value [2, 3] was 15 min and the “peptide 5A plasma concentration (ELISA)” value ([2]; time point 0 (immediately after injection), i.v. lateral tail vein, nanoparticles 17.25 mg/kg = 0.5 mg peptide 5A per kg, male Wistar rats, plasma diluted 1/500 in PBS, mean ± S.E.M., 3 animals) was 1661 ± 514 ng/mL.

Source: publication PMC4440766, “Detection of Peptide-Based Nanoparticles in Blood Plasma by ELISA” (PLoS ONE, 2015)
